Assay results from ChEMBL document CHEMBL1128553, “Synthesis of 1,4,7,8,9,10-hexahydro-9-methyl-6-nitropyrido[3,4-f]- quinoxaline-2,3-dione and related quinoxalinediones: characterization of alpha-amino-3-hydroxy-5-methyl-4-isoxazolepropionic acid (and N-methyl-D-aspartate) receptor and anticonvulsant activity” (J Med Chem, 1995).

Legend:
[1] = biological target: T1, Glutamate receptor ionotropic, AMPA (Rattus norvegicus, UniProt P19490+P19491+P19492+P19493)
Description: (§1) Binding affinity was determined against ionotropic glutamate receptor AMPA in rat brain synaptic membranes using [3H]AMPA as radioligand

[2] = biological target: T1, Glutamate receptor ionotropic, AMPA; remark: listed apart in the source
Description: Inhibition of Ionotropic glutamate receptor AMPA induced depolarization in rat cortical wedge by application of 10 uM of AMPA

[3] = biological target: T1, Glutamate receptor ionotropic, AMPA; remark: listed apart in the source
Description: Antagonistic activity against Ionotropic glutamate receptor AMPA induced LDH release in cultured rat cortical neurons after 24 hr 100 uM AMPA

[4] = species: Rattus norvegicus; experiment: Concentration of compound that inhibits by 50% LDH released by 24 hr application of 100 uM AMPA; format: functional, organism-based
[5] = biological target: Glutamate receptor ionotropic, kainate; experiment: Binding affinity for the ionotropic glutamate receptor kainate in rat brain synaptic membranes using [3H]kainate as radioligand; format: cell membranes
[6] = species: Rattus norvegicus; experiment: Concentration of compound that inhibits by 50% depolarizations induced by 10 uM AMPA; format: functional
[7] = biological target: Glutamate receptor ionotropic, NMDA 1 (Rattus norvegicus, UniProt P35439); experiment: Affinity for N-methyl-D-aspartate glutamate receptor 1 in rat brain synaptic membranes, using [3H]glycine as radioligand; format: cell membranes
[8] = biological target: Glutamate receptor ionotropic, kainate; experiment: Antagonistic activity against Ionotropic glutamate receptor kainate induced LDH release in cultured cortical neurons in rat after 24 hr application of 500 uM of kainate; format: functional
[9] = species: Rattus norvegicus; experiment: Concentration of compound that inhibits by 50% LDH released by 24 hr application of 500 uM kainate; format: functional, organism-based
[10] = biological target: Glutamate receptor ionotropic, AMPA (Rattus norvegicus, UniProt P19491+P19492+P19493+P19490)
Chain of Glutamate receptor ionotropic, AMPA (Rattus norvegicus, UniProt P19491+P19492+P19493+P19490) (P19491 whole entry): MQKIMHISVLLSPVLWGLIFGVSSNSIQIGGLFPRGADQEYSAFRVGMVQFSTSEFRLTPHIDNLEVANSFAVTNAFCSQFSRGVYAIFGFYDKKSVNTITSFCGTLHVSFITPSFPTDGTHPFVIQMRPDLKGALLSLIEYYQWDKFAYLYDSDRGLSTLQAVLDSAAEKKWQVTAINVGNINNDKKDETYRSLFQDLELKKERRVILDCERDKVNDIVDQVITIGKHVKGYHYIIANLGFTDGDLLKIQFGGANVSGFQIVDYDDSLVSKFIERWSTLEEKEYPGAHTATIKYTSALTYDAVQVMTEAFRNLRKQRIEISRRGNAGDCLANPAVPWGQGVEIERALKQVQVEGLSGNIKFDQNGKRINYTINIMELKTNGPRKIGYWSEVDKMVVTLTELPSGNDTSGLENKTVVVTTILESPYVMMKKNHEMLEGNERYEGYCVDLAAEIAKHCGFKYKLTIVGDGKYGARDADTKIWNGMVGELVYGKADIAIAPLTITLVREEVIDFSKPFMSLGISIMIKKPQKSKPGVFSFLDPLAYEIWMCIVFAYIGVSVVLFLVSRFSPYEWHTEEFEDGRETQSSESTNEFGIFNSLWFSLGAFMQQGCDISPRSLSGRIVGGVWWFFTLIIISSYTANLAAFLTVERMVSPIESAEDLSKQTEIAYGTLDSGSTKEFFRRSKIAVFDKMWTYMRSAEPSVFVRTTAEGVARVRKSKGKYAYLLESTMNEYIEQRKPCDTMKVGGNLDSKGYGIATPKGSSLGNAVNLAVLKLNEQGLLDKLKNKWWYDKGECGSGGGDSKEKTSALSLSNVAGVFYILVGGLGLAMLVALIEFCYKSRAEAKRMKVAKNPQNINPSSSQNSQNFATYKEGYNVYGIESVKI
Chain of Glutamate receptor ionotropic, AMPA (Rattus norvegicus, UniProt P19491+P19492+P19493+P19490) (P19492 whole entry): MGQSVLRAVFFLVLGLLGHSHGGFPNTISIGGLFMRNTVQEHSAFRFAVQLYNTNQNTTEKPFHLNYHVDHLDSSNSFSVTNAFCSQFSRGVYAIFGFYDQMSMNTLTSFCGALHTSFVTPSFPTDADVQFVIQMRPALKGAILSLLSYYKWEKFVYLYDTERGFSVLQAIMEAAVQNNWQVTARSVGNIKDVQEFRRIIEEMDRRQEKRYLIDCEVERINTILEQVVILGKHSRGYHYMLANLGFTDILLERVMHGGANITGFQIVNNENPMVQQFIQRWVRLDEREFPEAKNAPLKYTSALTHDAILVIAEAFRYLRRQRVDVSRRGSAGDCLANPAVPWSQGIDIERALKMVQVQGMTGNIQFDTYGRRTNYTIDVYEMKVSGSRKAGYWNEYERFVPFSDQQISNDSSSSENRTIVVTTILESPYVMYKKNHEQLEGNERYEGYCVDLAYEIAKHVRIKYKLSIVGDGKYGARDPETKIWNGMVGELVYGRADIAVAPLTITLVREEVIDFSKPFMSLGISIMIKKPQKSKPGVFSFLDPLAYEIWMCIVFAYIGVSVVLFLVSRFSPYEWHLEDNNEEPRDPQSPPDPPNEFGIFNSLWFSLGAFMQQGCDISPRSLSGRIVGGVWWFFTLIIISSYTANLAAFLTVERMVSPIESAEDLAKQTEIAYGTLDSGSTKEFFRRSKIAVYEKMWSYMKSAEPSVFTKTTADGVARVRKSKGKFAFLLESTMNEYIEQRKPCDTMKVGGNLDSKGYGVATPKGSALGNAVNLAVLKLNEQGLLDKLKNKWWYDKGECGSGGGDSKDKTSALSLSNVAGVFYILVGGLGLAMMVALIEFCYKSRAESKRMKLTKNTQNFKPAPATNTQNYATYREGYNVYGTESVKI
Chain of Glutamate receptor ionotropic, AMPA (Rattus norvegicus, UniProt P19491+P19492+P19493+P19490) (P19493 whole entry): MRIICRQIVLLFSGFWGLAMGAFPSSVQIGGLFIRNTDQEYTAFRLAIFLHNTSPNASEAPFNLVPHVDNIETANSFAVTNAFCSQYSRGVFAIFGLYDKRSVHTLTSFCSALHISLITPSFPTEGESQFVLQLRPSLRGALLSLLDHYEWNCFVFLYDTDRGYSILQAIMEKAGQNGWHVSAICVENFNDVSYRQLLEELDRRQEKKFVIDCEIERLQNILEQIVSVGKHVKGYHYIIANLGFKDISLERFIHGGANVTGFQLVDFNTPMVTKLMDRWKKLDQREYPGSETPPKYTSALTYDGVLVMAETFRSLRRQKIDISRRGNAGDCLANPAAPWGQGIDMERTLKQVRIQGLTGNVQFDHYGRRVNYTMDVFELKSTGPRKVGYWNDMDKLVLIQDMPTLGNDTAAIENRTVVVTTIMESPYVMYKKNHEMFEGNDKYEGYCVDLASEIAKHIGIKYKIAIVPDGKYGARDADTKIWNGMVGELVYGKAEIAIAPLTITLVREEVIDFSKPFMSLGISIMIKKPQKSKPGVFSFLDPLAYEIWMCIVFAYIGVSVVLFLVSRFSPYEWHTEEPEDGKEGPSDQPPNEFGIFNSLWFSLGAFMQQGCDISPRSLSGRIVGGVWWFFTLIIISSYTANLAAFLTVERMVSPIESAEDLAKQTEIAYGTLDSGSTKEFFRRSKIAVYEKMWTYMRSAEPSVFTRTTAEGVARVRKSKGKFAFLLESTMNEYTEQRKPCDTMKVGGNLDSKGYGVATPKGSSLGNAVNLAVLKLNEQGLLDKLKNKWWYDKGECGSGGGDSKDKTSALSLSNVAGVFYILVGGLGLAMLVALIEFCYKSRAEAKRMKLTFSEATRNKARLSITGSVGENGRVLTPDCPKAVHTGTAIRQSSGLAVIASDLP
Chain of Glutamate receptor ionotropic, AMPA (Rattus norvegicus, UniProt P19491+P19492+P19493+P19490) (P19490 whole entry): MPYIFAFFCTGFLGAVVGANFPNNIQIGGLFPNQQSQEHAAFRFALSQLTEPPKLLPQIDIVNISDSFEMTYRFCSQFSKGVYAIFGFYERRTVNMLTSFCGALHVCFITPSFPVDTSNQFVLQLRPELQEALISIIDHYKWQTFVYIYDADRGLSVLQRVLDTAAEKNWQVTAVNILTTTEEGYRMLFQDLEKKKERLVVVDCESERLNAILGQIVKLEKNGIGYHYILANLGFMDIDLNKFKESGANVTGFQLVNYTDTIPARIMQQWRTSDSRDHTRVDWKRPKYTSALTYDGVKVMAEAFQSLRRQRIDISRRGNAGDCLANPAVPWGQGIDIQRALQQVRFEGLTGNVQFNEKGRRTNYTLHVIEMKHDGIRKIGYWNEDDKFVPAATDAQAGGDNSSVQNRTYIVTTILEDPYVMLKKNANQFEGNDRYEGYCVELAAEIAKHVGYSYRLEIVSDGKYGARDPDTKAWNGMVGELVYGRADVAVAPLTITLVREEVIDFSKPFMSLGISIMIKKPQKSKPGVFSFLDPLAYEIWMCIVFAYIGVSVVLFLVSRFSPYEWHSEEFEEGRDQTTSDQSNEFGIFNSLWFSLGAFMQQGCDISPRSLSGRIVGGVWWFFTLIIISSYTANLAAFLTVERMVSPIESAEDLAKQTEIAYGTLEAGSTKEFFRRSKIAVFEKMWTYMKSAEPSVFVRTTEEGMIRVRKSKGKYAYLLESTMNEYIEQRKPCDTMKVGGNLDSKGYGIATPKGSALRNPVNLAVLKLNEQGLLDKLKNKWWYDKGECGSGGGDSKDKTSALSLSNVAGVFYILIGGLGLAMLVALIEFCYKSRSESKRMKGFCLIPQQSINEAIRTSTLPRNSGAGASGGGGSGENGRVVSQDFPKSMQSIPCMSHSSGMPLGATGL
Description: as §1

SMILES | IC50 [1] | IC50 [2] | IC50 [3] | IC50 [4] | IC50 [5] | IC50 [6] | IC50 [7] | IC50 [8] | IC50 [9] | IC50 [10]
COC(=O)CC1c2ccc(Cl)cc2NC(=O)C1[N+](=O)[O-] (configuration not stated) | 139 µM |  |  |  |  |  |  |  |  | 
CCC(C)CN1CCc2c(Br)cc3nc(O)c(O)nc3c2C1 (configuration not stated) | > 100 µM | > 30 µM | > 30 µM | > 30 µM | 2.9 µM | > 30 µM | > 100 µM | > 30 µM | > 30 µM | 
CCC(C)CN1CCc2c(ccc3nc(O)c(O)nc23)C1 (configuration not stated) | > 100 µM |  |  |  | 48 µM |  | > 100 µM |  |  | 
CCC(C)N1CCc2ccc3nc(O)c(O)nc3c2C1 (configuration not stated) | > 100 µM |  |  |  | 21 µM |  |  |  |  | 
COC(=O)c1cc2nc(O)c(O)nc2c2c1CN(C)CC2 | 44 µM |  |  |  | 22 µM |  |  |  |  | 
CN1CCc2ccc3[nH]c(=O)c(=O)[nH]c3c2C1 | 18 µM |  |  |  | 71.2 µM |  | > 100 µM |  |  | 
CN1CCCc2c1ccc1nc(O)c(O)nc21 | 24 µM |  |  |  |  |  |  |  |  | 
CCCCCCCN1CCc2c(ccc3[nH]c(=O)c(=O)[nH]c23)C1 | > 100 µM |  |  |  | 45 µM |  | > 100 µM |  |  | 
CCCN1CCc2c(ccc3[nH]c(=O)c(=O)[nH]c23)C1 | 18 µM |  |  |  | 23 µM |  |  |  |  | 
CCOC(=O)c1nc2cc(Br)c3c(c2nc1O)CCN(C)C3 | > 100 µM |  |  |  |  |  |  |  |  | 
CN1CCc2c(c(S(=O)(=O)c3ccccc3)cc3nc(O)c(O)nc23)C1 | 96 µM |  |  |  | 72 µM |  |  |  |  | 
CC(C)CCN1CCc2ccc3nc(O)c(O)nc3c2C1 | 123 µM |  |  |  | 25 µM |  |  |  |  | 
CN1CCc2c(c(C(=O)O)cc3nc(O)c(O)nc23)C1 | 56 µM |  |  |  | 36 µM |  |  |  |  | 
CN1CCc2c([N+](=O)[O-])cc3[nH]c(=O)c(=O)[nH]c3c2C1 | 0.063 µM | 0.5 µM | 2.5 µM | 2.5 µM | 0.368 µM | 0.5 µM | 0.37 µM | 4 µM | 4 µM | 0.063 µM
CCc1cnc2c(O)nc3cc([N+](=O)[O-])c(-n4ccnc4)cc3n12 | 0.02 µM |  |  |  |  |  |  |  |  | 
CN1Cc2c(S(=O)(=O)N(C)C)cc3c(N=O)c(O)[nH]c3c2C1 | 0.6 µM |  |  |  |  |  |  |  |  | 
CCN1CCc2ccc3[nH]c(=O)c(=O)[nH]c3c2C1 | 41 µM |  |  |  | 20 µM |  |  |  |  | 
CN1CCc2c(N)cc3[nH]c(=O)c(=O)[nH]c3c2C1 | 100 µM |  |  |  | 28 µM |  | > 100 µM |  |  | 
CCN1CCc2c(ccc3nc(O)c(O)nc23)C1 | 21 µM |  |  |  | 37 µM |  |  |  |  | 
CN1CCc2c(c([N+](=O)[O-])cc3[nH]c(=O)c(=O)[nH]c23)C1 | 0.29 µM | 1.8 µM | 18 µM | 18 µM | 0.38 µM | 1.8 µM | 4.9 µM | 9 µM | 9 µM | 
CC(=O)Nc1cc2[nH]c(=O)c(=O)[nH]c2c2c1CCN(C)C2 | > 100 µM |  |  |  | > 100 µM |  | > 100 µM |  |  | 
Oc1nc2ccc3c(c2nc1O)CCCN3 | 24 µM |  |  |  | 8.9 µM |  |  |  |  | 
CCC(C)CN1CCc2ccc3nc(O)c(O)nc3c2C1 (configuration not stated) | > 100 µM |  |  |  |  |  |  |  |  | 

Further lines, with some results ahead:

IC50 [1] | IC50 [2] | IC50 [3] | IC50 [4] | IC50 [5] | IC50 [6] | IC50 [7] | IC50 [8] | IC50 [9] | SMILES | IC50 [10]
0.166 µM | 0.7 µM | 6 µM | 6 µM | 0.52 µM | 0.7 µM | 1.4 µM | 7 µM | 7 µM | CCN1CCc2c([N+](=O)[O-])cc3[nH]c(=O)c(=O)[nH]c3c2C1 | 
1.3 µM |  |  |  | 14 µM |  | 267 µM |  |  | CCN1CCc2c(c(Br)cc3[nH]c(=O)c(=O)[nH]c23)C1 | 
0.153 µM | 1.5 µM | 6 µM | 6 µM | 0.29 µM | 1.5 µM | 0.93 µM | 7 µM | 7 µM | CC(C)N1CCc2c([N+](=O)[O-])cc3[nH]c(=O)c(=O)[nH]c3c2C1 | 
0.54 µM | 14 µM | 25 µM | 25 µM | 0.49 µM | 14 µM | 5 µM | 26 µM | 26 µM | CCN1CCc2c(c([N+](=O)[O-])cc3nc(O)c(O)nc23)C1 | 
17.6 µM |  |  |  | 6.7 µM |  | > 10 µM |  |  | Cc1cc2[nH]c(=O)c(=O)[nH]c2c2c1CN(C)CC2 | 
0.28 µM | 1.6 µM | 15 µM | 15 µM | 0.85 µM | 1.6 µM | 0.93 µM |  |  | CCC(C)N1CCc2c([N+](=O)[O-])cc3[nH]c(=O)c(=O)[nH]c3c2C1 (configuration not stated) | 
2.2 µM |  |  |  | 11 µM |  | 1.3 µM |  |  | O=c1[nH]c2ccc3c(c2[nH]c1=O)NCCC3 | 
6.5 µM |  |  |  | 29.2 µM |  | > 100 µM |  |  | CN1CCc2c(ccc3[nH]c(=O)c(=O)[nH]c23)C1 | 
2.8 µM |  |  |  | 1.7 µM |  | 20 µM |  |  | CCCN1CCc2c(c([N+](=O)[O-])cc3[nH]c(=O)c(=O)[nH]c23)C1 | 
5.8 µM |  |  |  | 79 µM |  | > 10 µM |  |  | CCCCCCCN1CCc2c(c([N+](=O)[O-])cc3[nH]c(=O)c(=O)[nH]c23)C1 | 
3.5 µM |  |  |  | 1.5 µM |  | 1 µM |  |  | O=c1[nH]c2cc(Br)c3c(c2[nH]c1=O)CNCC3 | 
12 µM |  |  |  | 17 µM |  |  |  |  | Oc1nc2ccc3c(c2nc1O)CCNC3 | 
1.3 µM |  |  |  | 15 µM |  | > 100 µM |  |  | CCC(C)CN1CCc2c(c([N+](=O)[O-])cc3[nH]c(=O)c(=O)[nH]c23)C1 (configuration not stated) | 
1.36 µM |  |  |  | 2.4 µM |  | 1.4 µM |  |  | CN1CCc2c(C#N)cc3[nH]c(=O)c(=O)[nH]c3c2C1 | 
2.84 µM |  |  |  | 2.83 µM |  | 4 µM |  |  | CN1CCc2c(Br)cc3[nH]c(=O)c(=O)[nH]c3c2C1 | 
9.7 µM | 16.5 µM | > 30 µM | > 30 µM | 0.68 µM | 16.5 µM | > 10 µM | > 30 µM | > 30 µM | CC(C)CCN1CCc2c(Br)cc3nc(O)c(O)nc3c2C1 | 
2.5 µM |  |  |  | 0.43 µM |  | > 10 µM |  |  | CCC(C)N1CCc2c(Br)cc3nc(O)c(O)nc3c2C1 (configuration not stated) | 
0.74 µM |  |  |  | 6.4 µM |  | 0.62 µM |  |  | CCN1CCc2c(Br)cc3[nH]c(=O)c(=O)[nH]c3c2C1 | 
4.3 µM |  |  |  |  |  |  |  |  | O=C(NS(=O)(=O)c1ccccc1)c1nc2cc(Cl)c(Cl)cc2[nH]c1=O | 
13 µM |  |  |  | 20 µM |  | 50 µM |  |  | CCOC(=O)C(=O)N1CCCc2c1ccc1[nH]c(=O)c(=O)[nH]c21 | 
0.11 µM |  | 5 µM | 5 µM | 1.18 µM |  | 0.86 µM | 7 µM | 7 µM | CC(C)CCN1CCc2c([N+](=O)[O-])cc3[nH]c(=O)c(=O)[nH]c3c2C1 | 
1.1 µM |  |  |  | 6.4 µM |  | > 10 µM |  |  | CCCN1CCc2c(c(Br)cc3nc(O)c(O)nc23)C1 | 
1.9 µM |  |  |  | 5.7 µM |  | > 10 µM |  |  | CN1CCc2c(c(Br)c([N+](=O)[O-])c3[nH]c(=O)c(=O)[nH]c23)C1 | 
9 µM |  |  |  |  |  |  |  |  | O=c1[nH]c2cc(Br)c3c(c2[nH]c1=O)CCCN3 | 
1.86 µM |  |  |  | 1.76 µM |  | 4.3 µM |  |  | CN1CCc2c(c(Br)cc3[nH]c(=O)c(=O)[nH]c23)C1 | 
0.28 µM |  | 8 µM | 8 µM | 0.28 µM |  | 1.3 µM | 11 µM | 11 µM | CCC(C)CN1CCc2c([N+](=O)[O-])cc3[nH]c(=O)c(=O)[nH]c3c2C1 (configuration not stated) | 
0.2 µM |  |  |  |  |  |  |  |  | O=c1[nH]c2cc(-n3ccnc3)c([N+](=O)[O-])cc2[nH]c1=O [YM-90K] | 
